Patent publication US20210315816A1, “ANTIMICROBIAL COMPOSITIONS AND METHODS” (BOARD OF REGENTS OF THE UNIVERSITY OF NEBRASKA, priority 2018, published 2021)

Experiments:
[1] = test system: bone marrow-derived macrophages; assay: IL-4 pre-treated bone marrow-derived macrophages with oligomycin: TNF-α, arginase, protein yield
Method: Bone marrow-derived macrophages were plated overnight and the following day cells were pre-treated with IL-4 (10 ng/mL) for 1 hour followed by various concentrations of oligomycin for 24 hours, whereupon TNF-α (FIG. 2A) and arginase (FIG. 2B) expression was determined by ELISA and enzymatic assay, respectively. Data are presented as the mean±SD combined from two independent experiments (n=6 biological replicates) (*, p<0.05; **, p<0.01; ***, p<0.001; Student's t-test).
Macrophages were expanded from the bone marrow of both male and female C57BL/6NCrl mice as described (Yamada, et al. (2018) Infect. Immun., 86(7) e00206-18). At day in vitro 6, macrophages were harvested and seeded at 5×10^4 cells/well in a 96-well plate. Following an overnight adherence period, macrophages were pre-treated with 10 ng/mL recombinant mouse (rm)IL-4 (Cat #574306 BioLegend, San Diego, Calif.) for 1 hour followed by exposure to various concentrations of oligomycin (Cat #11342 Cayman Chemical) for 24 hours, whereupon medium was collected to quantify TNF-α by cytometric bead array (Cat #552364, BD Biosciences) and arginase activity (Cat #MAK112, Millipore Sigma).

[2] = test system: S. aureus USA300 LAC13c; assay: Mouse model of S. aureus orthopedic implant biofilm infection, bacterial burdens; format: in vivo
Method: To model infectious complications that can arise in patients following arthroplasty, a mouse model of S. aureus orthopedic implant infection was used (Heim, et al. (2014) Methods Mol. Biol., 1106:183-191; Heim, et al. (2015) J. Leukoc. Biol., 98:1003-1013; Heim, et al. (2014) J. Immunol., 192:3778-3792; Heim, et al. (2015) J. Immunol., 194:3861-3872; Scherr, et al. (2014) Methods Mol. Biol., 1106:173-181). […] Briefly, mice were anesthetized with ketamine/xylazine (100 mg/kg and 5 mg/kg, respectively) and the surgical site was disinfected with povidone-iodine. After a surgical plane of anesthesia was achieved, a medial incision was created through the quadriceps with lateral displacement to access the distal femur. […]
Animals were placed in an induction chamber without restraint and anesthetized with 2.5% isoflurane. […] Nanoparticle injection and length of retention was evaluated in the same cohort of mice using an In Vivo Imaging System (IVIS® Spectrum; PerkinElmer, Waltham, Mass.) under isoflurane anesthesia, with excitation and emission wavelengths of 640 nm and 680 nm, respectively. […]

[3] = test system: biofilm-associated monocytes; assay: JC-1 and 2-NBDG staining of biofilm-associated monocytes (OxPhos, glycolysis); format: in vivo, mouse; conditions: days 3 or 7 after intra-articular injection at day 7 post-infection; oligomycin 100 ng
Method: C57BL/6NCrl mice received a single intra-articular injection of free oligomycin only (Oligo; 100 ng), empty nanoparticles (CT), empty nanoparticles (CT)+free oligomycin (100 ng; not loaded), or oligomycin loaded nanoparticles (CTO) at day 7 post-infection and were analyzed at day 3 (FIG. 12A, 12B; 5 mice/group) or 7 (FIGS. 12C, 12D; 9-10 mice/group) after treatment. FIGS. 12A, 12C: OxPhos was calculated as the ratio of […] monocytes (CD11b^highLy6G^−Ly6C^+F4/80^−) following JC-1 staining and glycolytic activity was calculated as the percentage of 2-NBDG+ monocytes. FIGS. 12B, 12D: Bacterial burdens were assessed in the surrounding soft tissue, knee, femur, and implant, where the dotted lines represent the limit of detection (LOD). All results are reported as the mean±SD (*, p<0.05; **, p<0.01; ***, p<0.001; ****, p<0.0001; One-way ANOVA).
Leukocytes recovered from animals with sterile or S. aureus infected orthopedic implants were stained with the bi-potential dye JC-1 (5,5′,6,6′-Tetrachloro-1,1′,3,3′-tetraethylbenzimidazolocarbocyanine iodide; Cat #T3168 Invitrogen) or the fluorescent glucose analog 2-NBDG (2-(N-(7-Nitrobenz-2-oxa-1,3-diazol-4-yl)Amino)-2-Deoxyglucose; Cat #N13195 ThermoFisher) to evaluate OxPhos and glycolytic activity, respectively. JC-1 emits red fluorescence in mitochondria with large membrane potentials and green fluorescence in depolarized mitochondria. […]

[4] = test system: S. aureus; assay: S. aureus biofilm formation in 96-well plates ± oligomycin; format: cell-based; conditions: 10 μg/mL
Method: C57BL/6NCrl mice received intra-articular injections of oligomycin at 7 day post-infection (100 ng), or two sequential doses at days 7 and 8 post-infection (50 ng/day), or PBS and were sacrificed at day 14 post-infection. Bacterial burdens were quantified from the surrounding soft tissue, knee, femur, and implant. Results are from one experiment (n=5 mice/group/time point); (*, p<0.05; one-way ANOVA). Additionally, S. aureus biofilm formation was assessed in 96-well plates±oligomycin treatment (bottom graphs). Oligomycin (10 μg/mL) was added to planktonic S. aureus at time 0 (left panel) or mature biofilms for 4 days (right panel) to determine effects on bacterial growth at the indicated time points following oligomycin treatment. Cultures were replenished daily with fresh medium containing oligomycin. Results are presented as Log10 colony forming units (CFU) per well (mean±SD).

[5] = test system: S. aureus; conditions: 10 mg/kg, cited from earlier work
[6] = IL-4 10 ng/mL 1 hour, then oligomycin 24 hours, dose-dependent

Row | Structure (SMILES) | toxicity to macrophages (protein yields) [1] | TNF-α expression [1, 6] | arginase activity [1, 6] | biofilm burdens ([2]; days 3 or 7 after intra-articular injection, oligomycin 100 ng) | bacterial burdens ([2]; direct intra-articular injection, one bolus (100 ng) or two sequential doses (50 ng/day), day 14 post-infection) | monocyte OxPhos activity (JC-1) [3] | bactericidal activity during early biofilm formation or mature biofilms in vitro [4] | S. aureus titers in the joint [5] | S. aureus burdens on orthopedic implants ([5]; near the limit of detection)
1 | CC[C@H]1/C=C/C=C/C[C@@H](C)[C@H](O)[C@@](C)(O)C(=O)[C@@H](C)[C@H](O)[C@@H](C)C(=O)[C@@H](C)[C@H](O)[C@@H](C)/C=C/C(=O)O[C@@H]2[C@H](C)[C@H](CC1)O[C@]1(CC[C@H](C)[C@H](C[C@@H](C)O)O1)[C@H]2C [oligomycin] | not toxic to macrophages | increasing TNF-α expression | decreasing arginase activity | no changes | no effect on bacterial burdens | no changes | no bactericidal activity | – | –
2 | CCCCCCCCCC(=O)N[C@@H](Cc1c[nH]c2ccccc12)C(=O)N[C@H](CC(N)=O)C(=O)N[C@@H](CC(=O)O)C(=O)N[C@@H]1C(=O)NCC(=O)N[C@@H](CCCN)C(=O)N[C@@H](CC(=O)O)C(=O)N[C@H](C)C(=O)N[C@@H](CC(=O)O)C(=O)NCC(=O)N[C@H](CO)C(=O)N[C@@H]([C@H](C)CC(=O)O)C(=O)N[C@@H](CC(=O)c2ccccc2N)C(=O)O[C@@H]1C [daptomycin] | – | – | – | – | – | – | – | less affected | < 10^2 CFU
